We go through twelve molecules from ChEMBL document CHEMBL1201862, “PubChem BioAssay data set” (2004).

Some test systems named below: IGROV-1; OVCAR-4; CCRF-CEM; M14; SF-295; MOLT-4; 786-0; LOX IMVI; SNB-19; CAKI-1; MDA-N; UO-31; NCI-H226; NCI-H23; KM12; SK-MEL-5; NCI-H522; COLO 205; HCC 2998.
Common to all, as to test: NCI-60 cell line screen, 48 h

Molecules are shown by their SMILES.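 Five concentrations, 48 hours, 96-well plates. GI50 is the concentration that inhibits growth by half.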 Activity calls are given as the source filed them. No stated cut-off is given here; in the data, active = GI50 up to about 1.1 µM and inactive = higher. A value given as a limit tells only on which side of the number the result lay.

Take `NCC1CCCCC1.O=C(O)NCC1CCCCC1`: the GI50 is 9.12 µM (inactive) in the assay on IGROV-1; 35.6 µM (inactive) in the assay on OVCAR-4; 15.7 µM (inactive) in the assay with CCRF-CEM; 36.6 µM (inactive) with M14; 19.1 µM (inactive) in the assay on SF-295; 15.2 µM (inactive) with MOLT-4. In addition, the GI50 was 24.1 µM (inactive) in the assay with 786-0; 15.3 µM (inactive) with LOX IMVI; 47.3 µM (inactive) in the assay on SNB-19; 28.2 µM (inactive) in the assay on CAKI-1; 15.9 µM (inactive) with MDA-N; 33.6 µM (inactive) with UO-31. In addition, the GI50 in the assay on NCI-H226 was 17.9 µM (inactive); in the assay with NCI-H23 it was 23.3 µM (inactive); with KM12 it was 12.1 µM (inactive); in the assay with SK-MEL-5 it was 15.3 µM (inactive); in the assay on NCI-H522, 10.7 µM (inactive).
In the case of `Nc1ccc2[nH]cc(CCC(=O)O)c2c1`, the GI50 with IGROV-1 is > 100 µM (inactive); in the assay on OVCAR-4 it was > 100 µM (inactive); in the assay on CCRF-CEM, 9.48 µM (inactive); in the assay on M14, > 100 µM (inactive); with SF-295, > 100 µM (inactive); with MOLT-4 it was > 100 µM (inactive). Also, the GI50 with COLO 205, in the assay with 786-0, in the assay on LOX IMVI, in the assay on SNB-19, with CAKI-1 and in the assay with MDA-N was > 100 µM (inactive) in each case. For the same molecule, the GI50 in the assay on UO-31, with NCI-H226, in the assay on NCI-H23, with KM12, with SK-MEL-5 and in the assay on NCI-H522 was > 100 µM (inactive) in each case.
`Cc1cc(Cl)ccc1OCC(=O)Nc1nc(N)nc(N)n1`: the GI50 with IGROV-1, in the assay with OVCAR-4, in the assay with CCRF-CEM, in the assay with M14, in the assay with SF-295 and in the assay with MOLT-4 was > 100 µM (inactive) in each case. In addition, the GI50 in the assay with COLO 205, in the assay on 786-0, in the assay on LOX IMVI, in the assay with SNB-19, with CAKI-1 and in the assay with MDA-N was > 100 µM (inactive) in each case. For the same molecule, the GI50 is 40.7 µM (inactive) in the assay on UO-31; > 100 µM (inactive) in the assay with NCI-H226; > 100 µM (inactive) in the assay on NCI-H23; > 100 µM (inactive) in the assay on KM12; > 100 µM (inactive) with SK-MEL-5; > 100 µM (inactive) with NCI-H522.
For `COc1cccc2c1C(=O)c1ccc3cc(CO)cc(O)c3c1C2=O`, the GI50 is 1.38 µM (inactive) in the assay with IGROV-1; 0.652 µM (active) with OVCAR-4; 0.204 µM (active) in the assay on CCRF-CEM; 0.245 µM (active) with M14; 3.03 µM (inactive) with SF-295; 0.405 µM (active) in the assay on MOLT-4. The GI50 in the assay with COLO 205 is 1.53 µM (inactive); with 786-0, 0.619 µM (active); in the assay on LOX IMVI, 1.8 µM (inactive); with SNB-19, 1.79 µM (inactive); in the assay on CAKI-1 it was 2.72 µM (inactive); in the assay with MDA-N, 0.19 µM (active). Also, the GI50 is 0.982 µM (active) in the assay on UO-31; 0.908 µM (active) in the assay with NCI-H226; 0.288 µM (active) in the assay on NCI-H23; 0.893 µM (active) in the assay with KM12; 0.139 µM (active) in the assay with SK-MEL-5; 0.865 µM (active) in the assay on NCI-H522.
For the molecule `Cc1cc2cc3ccccc3cc2c(=O)[nH]1`, the GI50 in the assay on IGROV-1, with OVCAR-4, with CCRF-CEM, in the assay with M14, with SF-295 and in the assay with MOLT-4 was > 10 µM (inactive) in each case. Also, the GI50 in the assay with 786-0, in the assay with LOX IMVI, with SNB-19, in the assay on MDA-N, with UO-31 and with NCI-H226 was > 10 µM (inactive) each time. Besides, the GI50 in the assay on NCI-H23, in the assay on KM12 and in the assay on NCI-H522 was > 10 µM (inactive) throughout.
With `NNC(=S)N1CCN(C(=S)NN)CC1`, the GI50 was 43.4 µM (inactive) in the assay on IGROV-1; 28.8 µM (inactive) in the assay with OVCAR-4; > 100 µM (inactive) in the assay with CCRF-CEM; 13.7 µM (inactive) in the assay on M14; > 100 µM (inactive) in the assay on SF-295; > 100 µM (inactive) with MOLT-4. For the same molecule, the GI50 was > 100 µM (inactive) with HCC 2998; 65.8 µM (inactive) in the assay on COLO 205; > 100 µM (inactive) in the assay with 786-0; 58.1 µM (inactive) in the assay with LOX IMVI; > 100 µM (inactive) in the assay with SNB-19; > 100 µM (inactive) in the assay with CAKI-1. Also, the GI50 with MDA-N, in the assay with UO-31, in the assay with NCI-H23, with KM12, in the assay on SK-MEL-5 and in the assay with NCI-H522 was > 100 µM (inactive) throughout.
Turning to `CC(C)NC(=O)OCc1c(COC(=O)NC(C)C)n(C)c2c1ccc1cc(Cl)c(Cl)cc12`, the GI50 in the assay with IGROV-1 is 10.5 µM (inactive); with OVCAR-4, 20.1 µM (inactive); with CCRF-CEM, 3.33 µM (inactive); in the assay on M14 it was 15.5 µM (inactive); in the assay with SF-295 it was 16.6 µM (inactive); in the assay on MOLT-4, 3.97 µM (inactive). Besides, the GI50 in the assay with COLO 205 was 10.9 µM (inactive); in the assay with 786-0, 7.5 µM (inactive); with LOX IMVI, 9.23 µM (inactive); with SNB-19, 13.4 µM (inactive); in the assay with CAKI-1, 2.09 µM (inactive); in the assay with MDA-N, 13.6 µM (inactive). Further, the GI50 in the assay on UO-31 was 16.7 µM (inactive); in the assay with NCI-H226, 3.78 µM (inactive); with NCI-H23, 12.8 µM (inactive); in the assay on SK-MEL-5, 16.5 µM (inactive); in the assay on NCI-H522, 1.49 µM (inactive).
On to `CCCN1CC=C(c2cc(C(=O)OCC)[nH]c2-c2cc(C)no2)C1=O`, for which the GI50 with IGROV-1 was > 100 µM (inactive); in the assay on OVCAR-4, > 100 µM (inactive); with CCRF-CEM it was 89.3 µM (inactive); in the assay with M14, > 100 µM (inactive); with SF-295, > 100 µM (inactive); in the assay with MOLT-4 it was 53.6 µM (inactive). Besides, the GI50 in the assay on HCC 2998, with COLO 205, in the assay on 786-0, with LOX IMVI, in the assay on SNB-19 and in the assay on CAKI-1 was > 100 µM (inactive) in each case. For the same molecule, the GI50 with MDA-N was > 100 µM (inactive); in the assay with UO-31, 89.7 µM (inactive); in the assay on NCI-H226, 73.5 µM (inactive); in the assay with NCI-H23, > 100 µM (inactive); in the assay on KM12, > 100 µM (inactive); with SK-MEL-5, > 100 µM (inactive).
Consider `CCOC(=O)C1CCC/C1=N\NC(=N)N.Cc1cc(O)c(C(C)C)cc1S(=O)(=O)O` (centres undefined), for which the GI50 in the assay on IGROV-1, in the assay on OVCAR-4, in the assay on CCRF-CEM, in the assay with M14, with SF-295 and in the assay with MOLT-4 was > 100 µM (inactive) throughout. Besides, the GI50 with HCC 2998, with COLO 205, with 786-0, in the assay with LOX IMVI, with SNB-19 and in the assay on MDA-N was > 100 µM (inactive) throughout. Moreover, the GI50 with UO-31, with NCI-H226, in the assay with NCI-H23, in the assay on KM12, in the assay with SK-MEL-5 and in the assay on NCI-H522 was > 100 µM (inactive) each time.
`c1cc(-c2cnc(-c3ccc4c(c3)CCCO4)o2)ccn1`: the GI50 is 17.9 µM (inactive) in the assay with IGROV-1; 14.1 µM (inactive) with OVCAR-4; 5.98 µM (inactive) in the assay with CCRF-CEM; 18.6 µM (inactive) in the assay on M14; 20 µM (inactive) in the assay with SF-295; 5.62 µM (inactive) with MOLT-4. Moreover, the GI50 is 18.5 µM (inactive) in the assay on COLO 205; 19.5 µM (inactive) in the assay on 786-0; 13.6 µM (inactive) with LOX IMVI; 11.9 µM (inactive) in the assay on SNB-19; 15.6 µM (inactive) in the assay on CAKI-1; 14.7 µM (inactive) in the assay on MDA-N. Moreover, the GI50 was 12.3 µM (inactive) in the assay with UO-31; 15.3 µM (inactive) with NCI-H226; 15.5 µM (inactive) with NCI-H23; 12.6 µM (inactive) in the assay with SK-MEL-5; 10 µM (inactive) in the assay on NCI-H522.
`CC1=CC2=C(C#N)C(=O)OC2(C)C(c2ccccc2)C1` (centres undefined): the GI50 in the assay with IGROV-1 is 6.04 µM (inactive); with OVCAR-4, 87.7 µM (inactive); in the assay with M14, > 100 µM (inactive); with SF-295, > 100 µM (inactive); with MOLT-4, > 100 µM (inactive); in the assay with 786-0 it was > 100 µM (inactive). Further, the GI50 with LOX IMVI, in the assay on SNB-19, in the assay on MDA-N, in the assay on UO-31, with NCI-H226 and in the assay with KM12 was > 100 µM (inactive) in each case. Also, the GI50 with NCI-H522 was > 100 µM (inactive).
Consider `O=C1/C(=C\c2ccc([N+](=O)[O-])cc2)N(S(=O)(=O)c2ccccc2)c2ncccc21`, for which the GI50 in the assay on IGROV-1 was 18.3 µM (inactive); with CCRF-CEM, 2.98 µM (inactive); with M14, 17.4 µM (inactive); with SF-295 it was 28.2 µM (inactive); with MOLT-4, 3.24 µM (inactive); with COLO 205 it was 19.5 µM (inactive). For the same molecule, the GI50 was 16.5 µM (inactive) in the assay on 786-0; 19.5 µM (inactive) in the assay on LOX IMVI; 24.5 µM (inactive) in the assay on SNB-19; 8.18 µM (inactive) with CAKI-1; 19.5 µM (inactive) with MDA-N; 19.3 µM (inactive) in the assay on UO-31. In addition, the GI50 was 22.9 µM (inactive) in the assay on NCI-H226; 13.7 µM (inactive) with NCI-H23; 20.3 µM (inactive) with KM12; 16.8 µM (inactive) in the assay on SK-MEL-5; 18.3 µM (inactive) with NCI-H522.
